Experimental data from US20190169181A1, “FUMAGILLOL COMPOUNDS AND METHODS OF MAKING AND USING SAME” (Zafgen, Inc., priority 2016, published 2019).
Where a name gives a salt, the structure may show the parent alone.

Columns and labels:
[1] = target: T1, recombinant human MetAP2 (Homo sapiens, UniProt P50579); assay: Recombinant human MetAP2 enzyme inhibition assay (MAS peptide / amino acid oxidase / Amplex Ultrared readout); format: biochemical; details: Flag tagged human recombinant MetAP2, 25 minutes at 25° C.
T1 construct: Flag; made in house
T1 sequence (P50579 whole entry): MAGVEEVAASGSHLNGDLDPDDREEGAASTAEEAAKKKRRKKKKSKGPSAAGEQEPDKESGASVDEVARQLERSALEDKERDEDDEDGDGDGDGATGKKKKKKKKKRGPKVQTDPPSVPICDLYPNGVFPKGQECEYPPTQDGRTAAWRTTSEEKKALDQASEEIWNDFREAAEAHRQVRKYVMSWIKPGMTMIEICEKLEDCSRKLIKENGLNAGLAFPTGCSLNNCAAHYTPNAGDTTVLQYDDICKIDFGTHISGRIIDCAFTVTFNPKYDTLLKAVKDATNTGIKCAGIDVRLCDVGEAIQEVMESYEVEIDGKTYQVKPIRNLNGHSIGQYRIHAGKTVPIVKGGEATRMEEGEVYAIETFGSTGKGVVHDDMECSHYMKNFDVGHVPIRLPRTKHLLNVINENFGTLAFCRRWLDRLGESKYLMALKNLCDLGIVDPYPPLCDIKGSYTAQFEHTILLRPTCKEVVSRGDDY
Procedure: Compounds are tested for their capacity to inhibit recombinant human MetAP2 activity using the following assay.
Flag tagged Human recombinant MetAP2 expressed and isolated for use as the enzyme source. 10 mM stock solutions of compounds were prepared in 100% DMSO and further diluted in 100% DMSO required concentration to 1 mM stocks. The stock compound solutions and DMSO vehicle controls were diluted to target final compound concentrations using assay buffer to a final concentration of 50 mM HEPES containing 100 mM NaCl, pH adjusted to 7.5. The MAS peptide was formulated to a 7.5 mM stock in distilled water and prior to use further diluted 1:4. […] 40 μl of enzyme was mixed with 100 μl of MnCl2 then further diluted in assay buffer to a final concentration of 16 μg/ml. To test for compound effect on MetAP2 enzyme activity, 5 μl of test compound, 10 μl of MAS substrate/amino acid oxidase mixture, 10 μl of MetAP2 was added to test wells in a 384 well black plate with blank wells containing no enzyme, replaced with 10 μl of assay buffer. All compounds were tested in duplicate on two occasions on the same day.
The plate was sealed with a TopSeal A cover and mixed briefly on an orbital mixer at 900 rpm. The plate was incubated for a further 25 minutes at 25° C. A 5× stock of Amplex buffer was prepared (0.25 M sodium phosphate, pH 7.4) and stored at 4° C. […] Horse radish peroxidase was diluted in […] of Amplex buffer, 100 μl of this was combined with 50 μl of Amplex Ultrared in […] of 1× Amplex buffer to generate sufficient detection reagent for a 384 well plate. 25 μl detection reagent was added to each well of the test plate, which was re-sealed and mixed briefly on an orbital shaker. The plate was transferred to an Envision Multi-label reader and RFU measured corresponding to excitation 531 nm and emission 595 nm. At the end of the MetAP2 incubation 25 μl Amplex/HRP mixture per well was added and the plate read plate on a plate reader.

[2] = system: Diet Induced Obese (DIO) C57BL/6 mice; assay: 10 day DIO mouse model, weight loss vs. vehicle; format: in vivo; details: 240 h; for inhibition in vivo at 0.3 mg/kg: 0.3 mpk sc once a day for 10 days; for inhibition in vivo at 1 mg/kg: 1.0 mpk sc once a day for 10 days
Text: The objective of this study design was to investigate the efficacy of disclosed compounds in a 10 day DIO mouse model. Effects on body weight, food intake, hematology and blood chemistry were the primary readouts of this study design. Male, Diet Induced Obese (DIO) C57BL/6 mice, 19-21 weeks of age (13-15 weeks on high fat diet) were ordered from a certified vendor and upon receipt were housed on irradiated corncob bedding in micro-isolator cages on a 12-hour light-dark cycle (0700-1900) at 68-74° F. and 30-70% humidity. Mice were fed Research Diets D12492 (60% Kcal fat, 20% Kcal carbohydrate and 20% protein) and provided water ad libitum. DIO mice were received and housed in the facility for approximately two weeks prior to the start of test article administration. On Day −4 or −3, mice were randomized into study groups based on body weight and body weights were continued to be recorded daily for the duration of the study. Daily food intake was assessed starting on Study Day −2 by weighing of the food with hopper together to avoid loss of food in transfer.
Compounds were formulated into a 100% DMSO stock (at 9 mg/mL) prior to the start, and further diluted into the target working concentration using the vehicle of 10% DMSO in water. Prior to test article administration, starting on Day −3 a dosing acclimation occurred with all animals receiving a subcutaneous injection of vehicle (10% DMSO) only for 3 days. Starting on Day 1, test compounds or vehicle were administered based on individual body weight, subcutaneously, once a day for 10 days. All mice were sacrificed on Day 11, 24 hours following the final dosing on Day 10. After sacrifice, whole blood was collected and analyzed for hematology and blood chemistry parameters.
Compounds were tested for weight loss vs. vehicle at 0.3 and 1.0 mpk sc (mg per kg animal weight delivered subcutaneously), and the results are shown in Table 2 below.

## CO[C@@H]1[C@H](OC(=O)N[C@H](c2nccn2C[C@H]2CCCN2C)C(C)C)CC[C@]2(CO2)[C@H]1[C@@]1(C)O[C@@H]1CC=C(C)C [Example 5, (3R,4S,5S,6R)-5-methoxy-4-((2R,3R)-2-methyl-3-(3-methylbut-2-enyl)oxiran-2-yl)-1-oxaspiro[2.5]octan-6-yl (S)-2-methyl-1-(1-(((R)-1-methylpyrrolidin-2-yl)methyl)-1H-imidazol-2-yl)propylcarbamate formate]
[1]
  IC50: 50 to 500 nM
[2]
  inhibition in vivo at 0.3 mg/kg: 3.1%

## CO[C@@H]1[C@H](OC(=O)N[C@H](c2cc(=O)cc[nH]2)C(C)C)CC[C@]2(CO2)[C@H]1[C@@]1(C)O[C@@H]1CC=C(C)C [Example 20, (3R,4S,5S,6R)-5-methoxy-4-((2R,3R)-2-methyl-3-(3-methylbut-2-enyl)oxiran-2-yl)-1-oxaspiro[2.5]octan-6-yl (S)-2-methyl-1-(4-oxo-1,4-dihydropyridin-2-yl)propylcarbamate]
[1]
  IC50: < 50 nM
[2]
  inhibition in vivo at 0.3 mg/kg: 3.4%
  inhibition in vivo at 1 mg/kg: 3.3%

## CC[C@@H](Cc1noc(=O)[nH]1)NC(=O)O[C@@H]1CC[C@]2(CO2)[C@@H]([C@@]2(C)O[C@@H]2CC=C(C)C)[C@@H]1OC [Example 29, (3R,4S,5S,6R)-5-methoxy-4-((2R,3R)-2-methyl-3-(3-methylbut-2-enyl)oxiran-2-yl)-1-oxaspiro[2.5]octan-6-yl (S)-1-(5-oxo-4,5-dihydro-1,2,4-oxadiazol-3-yl)butan-2-ylcarbamate]
[1]
  IC50: < 50 nM
[2]
  inhibition in vivo at 1 mg/kg: 3.6%

## CO[C@@H]1[C@H](OC(=O)N[C@H](c2cnn(C[C@H]3CCN(C)C3)c2)C(C)C)CC[C@]2(CO2)[C@H]1[C@@]1(C)O[C@@H]1CC=C(C)C [Example 22, (3R,4S,5S,6R)-5-methoxy-4-((2R,3R)-2-methyl-3-(3-methylbut-2-enyl)oxiran-2-yl)-1-oxaspiro[2.5]octan-6-yl (S)-2-methyl-1-(1-(((S)-1-methylpyrrolidin-3-yl)methyl)-1H-pyrazol-4-yl)propylcarbamate formate]
[1]
  IC50: 50 to 500 nM
[2]
  inhibition in vivo at 0.3 mg/kg: 4.7%

## CO[C@@H]1[C@H](OC(=O)N[C@H](Cc2nnc(N)s2)C(C)C)CC[C@]2(CO2)[C@H]1[C@@]1(C)O[C@@H]1CC=C(C)C [Example 36, (3R,4S,5S,6R)-5-methoxy-4-((2R,3R)-2-methyl-3-(3-methylbut-2-en-1-yl)oxiran-2-yl)-1-oxaspiro[2.5]octan-6-yl ((R)-1-(5-amino-1,3,4-thiadiazol-2-yl)-3-methylbutan-2-yl)carbamate]
[1]
  IC50: 50 to 500 nM
[2]
  inhibition in vivo at 1 mg/kg: 2%

## CO[C@@H]1[C@H](OC(=O)N[C@H](Cc2nnc(N)o2)C(C)C)CC[C@]2(CO2)[C@H]1[C@@]1(C)O[C@@H]1CC=C(C)C [Example 32, (3R,4S,5S,6R)-5-methoxy-4-((2R,3R)-2-methyl-3-(3-methylbut-2-enyl)oxiran-2-yl)-1-oxaspiro[2.5]octan-6-yl (R)-1-(5-amino-1,3,4-oxadiazol-2-yl)-3-methylbutan-2-ylcarbamate]
[1]
  IC50: < 50 nM
[2]
  inhibition in vivo at 0.3 mg/kg: 3.9%
  inhibition in vivo at 1 mg/kg: 0.8%

## CO[C@@H]1[C@H](OC(=O)N[C@H](c2noc(=O)[nH]2)C(C)C)CC[C@]2(CO2)[C@H]1[C@@]1(C)O[C@@H]1CC=C(C)C [Example 10, (3R,4S,5S,6R)-5-methoxy-4-((2R,3R)-2-methyl-3-(3-methylbut-2-enyl)oxiran-2-yl)-1-oxaspiro[2.5]octan-6-yl (S)-2-methyl-1-(5-oxo-4,5-dihydro-1,2,4-oxadiazol-3-yl)propylcarbamate]
[1]
  IC50: 50 to 500 nM
[2]
  inhibition in vivo at 0.3 mg/kg: 4.1%
  inhibition in vivo at 1 mg/kg: 2.9%

## CO[C@@H]1[C@H](OC(=O)N[C@@H](c2noc(=O)[nH]2)C(C)C)CC[C@]2(CO2)[C@H]1[C@@]1(C)O[C@@H]1CC=C(C)C [Example 11, (3R,4S,5S,6R)-5-methoxy-4-((2R,3R)-2-methyl-3-(3-methylbut-2-enyl)oxiran-2-yl)-1-oxaspiro[2.5]octan-6-yl (R)-2-methyl-1-(5-oxo-4,5-dihydro-1,2,4-oxadiazol-3-yl)propylcarbamate]
[1]
  IC50: 50 to 500 nM
[2]
  inhibition in vivo at 0.3 mg/kg: -1.3%
  inhibition in vivo at 1 mg/kg: 6.6%

## CNc1nnc([C@@H](NC(=O)O[C@@H]2CC[C@]3(CO3)[C@@H]([C@@]3(C)O[C@@H]3CC=C(C)C)[C@@H]2OC)C(C)C)s1 [Example 8, (3R,4S,5S,6R)-5-methoxy-4-((2R,3R)-2-methyl-3-(3-methylbut-2-enyl)oxiran-2-yl)-1-oxaspiro[2.5]octan-6-yl (S)-2-methyl-1-(5-(methylamino)-1,3,4-thiadiazol-2-yl)propylcarbamate]
[1]
  IC50: 50 to 500 nM
[2]
  inhibition in vivo at 0.3 mg/kg: 2%

## CNc1nnc(C[C@@H](NC(=O)O[C@@H]2CC[C@]3(CO3)[C@@H]([C@@]3(C)O[C@@H]3CC=C(C)C)[C@@H]2OC)C(C)C)s1 [Example 35, (3R,4S,5S,6R)-5-methoxy-4-((2R,3R)-2-methyl-3-(3-methylbut-2-enyl)oxiran-2-yl)-1-oxaspiro[2.5]octan-6-yl (R)-3-methyl-1-(5-(methylamino)-1,3,4-thiadiazol-2-yl)butan-2-ylcarbamate]
[1]
  IC50: 50 to 500 nM
[2]
  inhibition in vivo at 1 mg/kg: 1%

## CNc1nnc([C@H](NC(=O)O[C@@H]2CC[C@]3(CO3)[C@@H]([C@@]3(C)O[C@@H]3CC=C(C)C)[C@@H]2OC)C(C)C)o1 [Example 3, (3R,5S,6R)-5-methoxy-4-((2R,3R)-2-methyl-3-(3-methylbut-2-enyl)oxiran-2-yl)-1-oxaspiro[2.5]octan-6-yl (R)-2-methyl-1-(5-(methylamino)-1,3,4-oxadiazol-2-yl)propylcarbamate]
[1]
  IC50: 50 to 500 nM
[2]
  inhibition in vivo at 0.3 mg/kg: 1.1%

## CO[C@@H]1[C@H](OC(=O)N[C@H](c2ccc(N3CCOCC3)nc2)C(C)C)CC[C@]2(CO2)[C@H]1[C@@]1(C)O[C@@H]1CC=C(C)C [Example 26, (3R,4S,5S,6R)-5-methoxy-4-((2R,3R)-2-methyl-3-(3-methylbut-2-enyl)oxiran-2-yl)-1-oxaspiro[2.5]octan-6-yl (S)-2-methyl-1-(6-morpholinopyridin-3-yl)propylcarbamate]
[1]
  IC50: 50 to 500 nM
[2]
  inhibition in vivo at 0.3 mg/kg: 7.2%

## CO[C@@H]1[C@H](OC(=O)N[C@H](c2nnc[nH]2)C(C)C)CC[C@]2(CO2)[C@H]1[C@@]1(C)O[C@@H]1CC=C(C)C [Example 9, (3R,4S,5S,6R)-5-methoxy-4-((2R,3R)-2-methyl-3-(3-methylbut-2-enyl)oxiran-2-yl)-1-oxaspiro[2.5]octan-6-yl (S)-2-methyl-1-(4H-1,2,4-triazol-3-yl)propylcarbamate]
[1]
  IC50: < 50 nM
[2]
  inhibition in vivo at 0.3 mg/kg: 2.1%

## CO[C@@H]1[C@H](OC(=O)N[C@H](c2cn(CC(C)C)cn2)C(C)C)CC[C@]2(CO2)[C@H]1[C@@]1(C)O[C@@H]1CC=C(C)C [Example 42, (3R,4S,5S,6R)-5-methoxy-4-((2R,3R)-2-methyl-3-(3-methylbut-2-en-1-yl)oxiran-2-yl)-1-oxaspiro[2.5]octan-6-yl ((S)-1-(1-isobutyl-1H-imidazol-4-yl)-2-methylpropyl)carbamate]
[1]
  IC50: < 50 nM
[2]
  inhibition in vivo at 0.3 mg/kg: 10%

## CO[C@@H]1[C@H](OC(=O)N[C@H](c2nnc(N)o2)C(C)C)CC[C@]2(CO2)[C@H]1[C@@]1(C)O[C@@H]1CC=C(C)C [Example 1, (3R,4S,5S,6R)-5-methoxy-4-((2R,3R)-2-methyl-3-(3-methylbut-2-enyl)oxiran-2-yl)-1-oxaspiro[2.5]octan-6-yl (S)-1-(5-amino-1,3,4-oxadiazol-2-yl)-2-methylpropylcarbamate]
[1]
  IC50: < 50 nM
[2]
  inhibition in vivo at 0.3 mg/kg: 2.6%
  inhibition in vivo at 1 mg/kg: 2.1%
